Reference: patent US5789595A, “Tetrahydroisoquinoline derivative and medical preparation containing the same” (Terumo Kabushiki Kaisha, priority 1994, dated 1998)
Counter-ions that a name gives are not always drawn.

Key:
Type in all cases: cell-based
human platelet [1] = test: ADP-induced aggregation of human platelets (platelet-rich plasma), inhibition; settings: human PRP, 20 to 30×1e4 platelets/μl, 37° C., read-out: Inhibitory action for agglutination by ADP IC50
Method: Inhibity effects on human platelet of the invention derivatives to evaluate the activity for inhibiting aggregation induced by ADP (adenosine diphosphate), thrombin, and fibrinogen were measured in accordance with the procedure as described below. (1) Preparation of platelet-rich plasma, washed platelets, and α-chymotrypsin-treated platelets Human whole blood withdrawn from human elbow vein into 10% volume of 3.8% sodium citrate was centrifuged at 135×g (1100 rpm) for 10 minutes, and the supernatant was collected as platelet-rich plasma (PRP). The residue was further centrifuged at 1600×g (3000 rpm) for 10 minutes, and the supernatant was collected as platelet-poor plasma (PPP). PRP and PPP were used for the measurement of the aggregation induced by ADP. In the meanwhile, PRP was applied to Sepharose CL-2B column (manufacture by Pharmacia) equilibrated with HEPES buffer, pH 7.4 containing 0.5% BSA and 5.5 mM glucose, and the fractions eluted in the void volume were collected as platelet-suspension, and used for the measurement of the aggregation induced by thrombin. In addition, washed platelet were treated with α-chymotrypsin of the final concentration of 10 U/ml for 30 minutes at room temperature. Then, the protease reaction was stopped by the addition of trypsin-chymotrypsin inhibitor (0.5 mg/ml), and α-chymotrypsin-treated platelet-suspension was used for the aggregation induced by fibrinogen. (2) Measurement of ADP-induced aggregation PRP was diluted with PPP to adjust the number of platelets to 20 to 30×1e4/μl, and the aggregation induced by ADP was measured with aggligometer (HEMATRACER VI, manufactured by NBS). 0.2 ml of PRP was placed in the cubette of the aggligometer with 25 μl of the test solution or physiological saline (control), and was incubated at 37° C. for 5 minutes with stirring (1000 rpm). Then, 25 μl of ADP solution was added and the time course of the light transmittance was recorded. The transmittance of PRP and PPP were calibrated as 0 and 100% respectively, and the maximum transmittance after adding the agonist was taken for the maximum aggregation. The concentration of 50% inhibition (IC50) was calculated from the proportion of the maximum aggregation with test solution to physiological saline.

human platelet [2] = test: Thrombin-induced aggregation of human platelets (washed platelet suspension), inhibition; settings: HEPES buffer pH 7.4, 2 mM CaCl2 and MgCl2, read-out: Inhibitory action for agglutination by thrombin IC50
Method: (§1) Inhibity effects on human platelet of the invention derivatives to evaluate the activity for inhibiting aggregation induced by ADP (adenosine diphosphate), thrombin, and fibrinogen were measured in accordance with the procedure as described below.
(§2) (1) Preparation of platelet-rich plasma, washed platelets, and α-chymotrypsin-treated platelets
(§3) Human whole blood withdrawn from human elbow vein into 10% volume of 3.8% sodium citrate was centrifuged at 135×g (1100 rpm) for 10 minutes, and the supernatant was collected as platelet-rich plasma (PRP). The residue was further centrifuged at 1600×g (3000 rpm) for 10 minutes, and the supernatant was collected as platelet-poor plasma (PPP). PRP and PPP were used for the measurement of the aggregation induced by ADP. In the meanwhile, PRP was applied to Sepharose CL-2B column (manufacture by Pharmacia) equilibrated with HEPES buffer, pH 7.4 containing 0.5% BSA and 5.5 mM glucose, and the fractions eluted in the void volume were collected as platelet-suspension, and used for the measurement of the aggregation induced by thrombin. In addition, washed platelet were treated with α-chymotrypsin of the final concentration of 10 U/ml for 30 minutes at room temperature. Then, the protease reaction was stopped by the addition of trypsin-chymotrypsin inhibitor (0.5 mg/ml), and α-chymotrypsin-treated platelet-suspension was used for the aggregation induced by fibrinogen.
(3) Measurement of thrombin-induced aggregation
The platelet-suspension was diluted with HEPES buffer, pH 7.4 to adjust the number of platelets to 20 to 30×1e4/μl, and calcium chloride and magnesium chloride were respectively added to 2 mM (final concentration). The aggregation induced by thrombin was measured with this platelet-suspension and HEPES buffer (contrast) by the same procedure as the measurement of the aggregation induced by the ADP. The concentration of 50% inhibition (IC50) was calculated from the proportion of the maximum aggregation with test solution to physiological saline.

human platelet [3] = test: Fibrinogen-induced aggregation of α-chymotrypsin-treated human platelets, inhibition; settings: fibrinogen (0.4 mg/ml), HEPES buffer pH 7.4, PGE1 1 μM, read-out: Inhibitory action for agglutination by fibrinogen IC50
Method: as §1, §2
as §3, with “In addition, washed platelet were treated with α-chymotrypsin of the final concentration of 10 U/ml for 30 minutes at room temperature. Then, the protease reaction was stopped by the addition of trypsin-chymotrypsin inhibitor (0.5 mg/ml), and α-chymotrypsin-treated platelet-suspension was used for the aggregation induced by fibrinogen.” left out
α-chymotrypsin-treated platelet-suspension was diluted with HEPES buffer, pH 7.4 to adjust the number of platelets to 20 to 30×1e4/μl. […] The aggregation induced by fibrinogen (0.4 mg/ml) was measured with this platelet-suspension and the HEPES buffer (contrast). […]

SMILES	IC50 (human platelet [1]) [nM]	IC50 (human platelet [2]) [nM]	IC50 (human platelet [3]) [nM]
O=C(O)CN1CCc2ccc(NC(=O)COC3CCNCC3)cc2C1 [Ex. 1, 7-(piperidine-4-yloxyacetylamino)-2-carboxymethyl-1,2,3,4-tetrahydroisoquinoline]	5000	4800	–
CN(C(=O)COC1CCNCC1)c1ccc2c(c1)CN(CCC(=O)O)CC2 [Ex. 5, 7-[(piperidine-4-yloxyacetyl)methylamino]-2-[2-(carboxy)ethyl]-1,2,3,4-tetrahydroisoquinoline]	81000	43000	–
O=C(O)CCN1CCc2ccc(NC(=O)COC3CCNCC3)cc2C1c1ccccc1 (centres unmarked) [Ex. 6, 2-(carbonylethyl)-1-phenyl-7-(piperidine-4-yloxyacetylamino)-1,2,3,4-tetrahydroisoquinoline]	2900	1900	–
CC1CC(OCC(=O)Nc2ccc3c(c2)CN(CCC(=O)O)CC3)CC(C)N1 (centres unmarked) [Ex. 7, 7-(2,6-dimethylpiperidine-4-yloxyacetylamino)-2-(2-carboxyethyl)-1,2,3,4-tetrahydroisoquinoline]	> 10000	–	–
CC1CNCCC1OCC(=O)Nc1ccc2c(c1)CN(CCC(=O)O)CC2 (centres unmarked) [Ex. 8, 7-(3-methylpiperidine-4-yloxyacetylamino)-2-(2-carboxyethyl)-1,2,3,4-tetrahydroisoquinoline]	230	–	–
CC(CC(=O)O)N1CCc2ccc(NC(=O)COC3CCNCC3)cc2C1 (centres unmarked) [Ex. 9, 7-(piperidine-4-yloxyacetylamino)-2-(2-carboxy-1-methylethyl)-1,2,3,4-tetrahydroisoquinoline]	320	–	–

Other lines, results leading:

IC50 (human platelet [1]) [nM]	IC50 (human platelet [2]) [nM]	IC50 (human platelet [3]) [nM]	SMILES
97	66	38	O=C(O)CCN1CCc2ccc(NC(=O)COC3CCNCC3)cc2C1 [Ex. 2, 7-(piperidine-4-yloxyacetylamino)-2-carboxyethyl-1,2,3,4-tetrahydroisoquinoline]
> 10000	> 10000	–	O=C(O)CCCN1CCc2ccc(NC(=O)COC3CCNCC3)cc2C1 [Ex. 3, 7-(piperidine-4-yloxyacetylamino)-2-(3-carboxypropyl)-1,2,3,4-tetrahydroisoquinoline]
380	–	–	CC1c2cc(NC(=O)COC3CCNCC3)ccc2CCN1CCC(=O)O (centres unmarked) [Ex. 10, 2-(2-carboxyethyl)-1-methyl-7-(piperidine-4-yloxyacetylamino)-1,2,3,4-tetrahydroisoquinoline hydrochloride]
150	–	–	CC1CN(CCC(=O)O)Cc2cc(NC(=O)COC3CCNCC3)ccc21 (centres unmarked) [Ex. 11, 2-(2-carboxyethyl)-4-methyl-7-(piperidine-4-yloxyacetylamino)-1,2,3,4-tetrahydroisoquinoline hydrochloride]
12000	–	–	CC1(C)Cc2ccc(NC(=O)COC3CCNCC3)cc2CN1CCC(=O)O [Ex. 12, 2-(2-carboxyethyl)-3,3-dimethyl-7-(piperidine-4-yloxyacetylamino)-1,2,3,4-tetrahydroisoquinoline hydrochloride]
